# Assays:
# [1] = tested on: non-small cell lung cancer cells A549; assay: Cell viability reflected by cellular mechanical force (cellular mechanical force detection device); assay type: cell-based
# From the text: This example specifically provides application of cellular physical information acquired by the characterization system for cell/multicellular aggregate interaction described in any one of examples 10 to 12 or the cellular mechanical force detection method described in example 14 in monitoring cell viability.
# (§1) Please refer to FIG. 40, FIG. 41 and FIG. 42. FIG. 40 is a schematic diagram of the operation process of the cell viability detection method; FIG. 41 is a comparison diagram of cell viability measured by MTT method and cellular mechanical force measured by the device or system or method of the present invention after A549 cells are treated with different doses of 5FU for 24 h; FIG. 42 is a comparison diagram of cell viability measured by MTT method and cellular mechanical force measured by the device or system or method of the present invention after A549 cells are treated with different doses of 5FU for different times.
# (§2) Specifically, in this example, non-small cell lung cancer cells A549 are cultured on multiple cellular mechanical force detection devices, treated with different doses of the cell proliferation inhibitory drug 5-fluorouracil (5-FU), and cellular mechanical force at different time points is monitored by the characterization system for cell/multicellular aggregate interaction described in any one of examples 10 to 12 or the cellular mechanical force detection method described in example 14. Cell proliferation and cytotoxicity at different time points are monitored by CCK-8 kit, and cell viability measured by MTT assay is used as a control group to obtain data in FIGS. 41 and 42.
# [2] = tested on: non-small cell lung cancer cells A549; assay: Cell viability measured by MTT assay (control method); assay type: cell-based
# Procedure: as §1, §2
# [3] = different doses and times of treatment (FIGS. 41 and 42)
compound,measurement,setting,value
"O=c1[nH]cc(F)c(=O)[nH]1 [5FU, 5-fluorouracil]",cell viability reflected by the cellular mechanical force,[1]; [3],gradually decreasing trend in a dose-dependent manner
same,reduction range of cell viability reflected by mechanical force,"[1]; different doses, 24 h, compared with control group DMSO (FIG. 41)",larger than that reflected by the traditional MTT assay
same,time at which a significant decreasing trend of cellular mechanical force can be observed,[1]; treatment dose of 0.5 μM (FIG. 42),6 h
same,time at which a significant decreasing trend of cellular mechanical force can be observed,[1]; treatment dose of 1 μM (FIG. 42),3 h
same,cell viability measured by the MTT assay,[2]; [3],gradually decreasing trend in a dose-dependent manner
same,change in cell viability measured by the MTT method,[2]; within 12 h of treatment (FIG. 42),not obvious
